# Test results published in patent US10829464B2, “Benzoheterocyclic alkylamine compounds and use thereof” (priority 2016, dated 2020).
# Tested on: S. aureus strain Newman
# Test: IC50 determination of inhibition of staphyloxanthin synthesis
# Type: cell-based
# Conditions: Staphylococcus aureus; S. aureus strain Newman, Table 1; read-out: IC50, inhibitory activity on staphyloxanthin synthesis
# Description: Selection of compound concentrations: based on the preliminary screening results, the ability of each compound to inhibit staphyloxanthin synthesis was determined. […] According to the assay results, 10 different concentration gradients were designed for each compound, such that the ability to inhibit staphyloxanthin synthesis comprised substantially from 0% to 100%.
# Culture of the strains: single colonies of strain Newman and crtN mutant strain were picked from TSA plates, added into test tubes containing 4 mL of sterile TSB medium, and cultured at 37° C. and 250 rpm for 12 h for later use.
# The relative level of staphyloxanthin synthesis at each concentration of the compound of the invention=A450 (sample)/A450 (negative control)*100%. With the molar concentration of the compound as the abscissa and the relative level of staphyloxanthin synthesis as the ordinate, a curve fitting of inhibitor concentration-inhibition rate (log(inhibitor) vs response) was performed in Graphpad prism 5.0 software, and the IC50 of the compound for inhibiting staphyloxanthin synthesis was calculated by software based on the fitting results.
# S. aureus was selected for IC50 determination with respect to activity of inhibiting staphyloxanthin synthesis. […]
row,Compound,IC50 [nM]
1,"COc1cccc(/C=C/CN(C)Cc2coc3ccccc23)c1 [Compound IA-20, (E)-N-methyl-N-[(benzofuran-3-yl)methylene]-3-(3-methoxyphenyl)-prop-2-en-1-amine]",> 1000
2,CN(C/C=C/C1CCCCC1)Cc1coc2ccccc12 [Compound IA-32],> 1000
3,CN(CC#Cc1ccc(-c2ccccc2)cc1)Cc1coc2ccccc12 [Compound ID-1],> 1000
4,"CN(C/C=C/C=C/c1ccc(-c2ccccc2)cc1)Cc1coc2ccccc12 [Compound IA-39, (2E,4E)-5-([1,1′-biphenyl]-4-yl)-N-(benzofuran-3-ylmethyl)-N-methylpenta-2,4-dien-1-amine]",> 1000
5,FC(F)(F)c1ccc(/C=C/CNCc2coc3ccccc23)cc1 [Compound IB-1],> 1000
6,"CN(CCCc1ccc(-c2ccccc2)cc1)Cc1coc2ccccc12 [Compound IE-1, 3-([1,1′-biphenyl]-4-yl)-N-(benzofuran-3-ylmethyl)-N-methylpropan-1-amine]",> 1000
7,"CN(C/C=C/c1ccc(C(F)(F)F)cc1)Cc1csc2ccccc12 [Compound IA-41, (E)-N-(benzo[b]thiophen-3-ylmethyl)-N-methyl-3-(4-(trifluoromethyl)phenyl)prop-2-en-1-amine]",52.1 ± 0.8
8,"CCN(C/C=C/c1ccc(C(F)(F)F)cc1)Cc1coc2ccccc12 [Compound IB-2, (E)-N-ethyl-N-[(benzofuran-3-yl)methylene]-3-(4-trifluoromethylphenyl)-prop-2-en-1-amine]",> 1000
9,"CCOc1ccc(/C=C/CN(C)Cc2coc3ccccc23)cc1 [Compound IA-17, (E)-N-methyl-N-[(benzofuran-3-yl)methylene]-3-(4-ethoxyphenyl)-prop-2-en-1-amine]",> 1000
10,"CN(C/C=C/C1CCCC1)Cc1coc2ccccc12 [Compound IA-7, (E)-N-methyl-N-[(benzofuran-3-yl)methylene]-3-(4-cyclopentyl)prop-2-en-1-amine]",397 ± 20.3
11,"Cc1ccccc1/C=C/CN(C)Cc1coc2ccccc12 [Compound IA-36, (E)-N-methyl-N-[(benzofuran-3-yl)methylene]-3-(2-methylphenyl)-prop-2-en-1-amine]",86.4 ± 0.6
12,"CN(C/C=C/c1ccc(Cl)cc1Cl)Cc1coc2ccccc12 [Compound IA-11, (E)-N-methyl-N-[(benzofuran-3-yl)methylene]-3-(2,4-dichlorophenyl)prop-2-en-1-amine]",6.2 ± 0.5
13,"Cc1cccc(/C=C/CN(C)Cc2coc3ccccc23)c1 [Compound IA-37, (E)-N-methyl-N-[(benzofuran-3-yl)methylene]-3-(3-methylphenyl)-prop-2-en-1-amine]",> 1000
14,"CN(C/C=C/c1ccccc1)Cc1coc2ccccc12 [Compound IA-1, (E)-N-methyl-N-[(benzofuran-3-yl)methylene]-3-phenylprop-2-en-1-amine]",> 1000
15,"COc1ccc(/C=C/CN(C)Cc2coc3ccccc23)c(F)c1 [Compound IA-35, (E)-N-methyl-N-[(benzofuran-3-yl)methylene]-3-(2-fluoro-4-methoxyphenyl)-prop-2-en-1-amine]",> 1000
16,"CN(C/C=C/c1ccc(Cl)cc1)Cc1coc2ccccc12 [Compound IA-3, (E)-N-methyl-N-[(benzofuran-3-yl)methylene]-3-(4-chlorophenyl)prop-2-en-1-amine]",4.9 ± 0.1
17,CN(C/C=C/c1ccco1)Cc1coc2ccccc12 [Compound IA-14],> 1000
18,"CN(C/C=C/c1ccc(C#N)cc1)Cc1coc2ccccc12 [Compound IA-24, (E)-N-Methyl-N-[(benzofuran-3-yl)methylene]-3-(4-cyanophenyl)-prop-2-en-1-amine]",80.1 ± 4.7
19,"CN(C/C=C/c1ccc(Br)cc1)Cc1coc2ccccc12 [Compound IA-5, (E)-N-methyl-N-[(benzofuran-3-yl)methylene]-3-(4-bromophenyl)prop-2-en-1-amine]",2.5 ± 0.3
20,"COc1ccc(/C=C/CN(C)Cc2coc3ccccc23)cc1F [Compound IA-38, (E)-N-methyl-N-[(benzofuran-3-yl)methylene]-3-(3-fluoro-4-methoxyphenyl)-prop-2-en-1-amine]",> 1000
21,"CN(CC/C=C/c1ccc(-c2ccccc2)cc1)Cc1coc2ccccc12 [Compound IA-40, (E)-4-([1,1′-biphenyl]-4-yl)-N-(benzofuran-3-ylmethyl)-N-methylbut-3-en-1-amine]",> 1000
22,"CN(C/C=C/c1ccccc1[N+](=O)[O-])Cc1coc2ccccc12 [Compound IA-22, (E)-N-methyl-N-[(benzofuran-3-yl)methylene]-3-(2-nitrophenyl)-prop-2-en-1-amine]",> 1000

row,Compound,IC50 [nM]
1,"CN(C/C=C/c1ccc(C(F)(F)F)cc1)Cc1coc2ccccc12 [Compound IA-2, (E)-N-methyl-N-[(benzofuran-3-yl)methylene]-3-(4-trifluoromethylphenyl)-prop-2-en-1-amine]",9.8 ± 0.3
2,"CN(C/C=C/c1cccc(F)c1)Cc1coc2ccccc12 [Compound IA-19, (E)-N-methyl-N-[(benzofuran-3-yl)methylene]-3-(3-fluorophenyl)-prop-2-en-1-amine]",> 1000
3,"CN(C/C=C/c1ccc(C(F)(F)F)cc1)Cc1cc2ccccc2o1 [Compound IF-1, (E)-N-(benzofuran-2-ylmethyl)-N-methyl-3-(4-(trifluoromethyl)phenyl)prop-2-en-1-amine]",70.3 ± 5.2
4,"CN(C/C=C/c1ccccc1C(F)(F)F)Cc1coc2ccccc12 [Compound IA-30, (E)-N-methyl-N-[(benzofuran-3-yl)methylene]-3-(2-trifluoromethylphenyl)-prop-2-en-1-amine]",> 1000
5,"CN(C/C=C/c1ccc(F)cc1)Cc1coc2ccccc12 [Compound IA-4, (E)-N-methyl-N-[(benzofuran-3-yl)methylene]-3-(4-fluorophenyl)prop-2-en-1-amine]",74.1 ± 2.7
6,C/C=C/CN(C)Cc1coc2ccccc12 [Compound IA-23],> 1000
7,"Cc1ccc(/C=C/CN(C)Cc2coc3ccccc23)cc1 [Compound IA-21, (E)-N-methyl-N-[(benzofuran-3-yl)methylene]-3-(4-methylphenyl)-prop-2-en-1-amine]",9.9 ± 1.8
8,"CN(C/C=C/c1cccc(C(F)(F)F)c1)Cc1coc2ccccc12 [Compound IA-18, (E)-N-methyl-N-[(benzofuran-3-yl)methylene]-3-(3-trifluoromethylphenyl)-prop-2-en-1-amine]",> 1000
9,"CN(C/C=C/c1cccc2ccccc12)Cc1coc2ccccc12 [Compound IA-10, (E)-N-methyl-N-[(benzofuran-3-yl)methylene]-3-(naphthalen-1-yl)prop-2-en-1-amine]",> 1000
10,"CN(C/C=C/c1ccc(C(C)(C)C)cc1)Cc1coc2ccccc12 [Compound IA-27, (E)-N-methyl-N-[(benzofuran-3-yl)methylene]-3-(4-tert-butylphenyl)-prop-2-en-1-amine]",> 1000
11,"CN(C/C=C/c1ccc(C(F)(F)F)c(F)c1)Cc1coc2ccccc12 [Compound IA-9, (E)-N-methyl-N-[(benzofuran-3-yl)methylene]-3-(3-fluoro-4-trifluoromethyl-phenyl)prop-2-ene-1-the amine]",> 1000
12,"CN(C/C=C/c1ccc([N+](=O)[O-])cc1)Cc1coc2ccccc12 [Compound IA-16, (E)-N-methyl-N-[(benzofuran-3-yl)methylene]-3-(4-nitrophenyl)-prop-2-en-1-amine]",9.5 ± 3.2
13,"CN(C/C=C/c1ccc(C(F)(F)F)cc1F)Cc1coc2ccccc12 [Compound IA-31, (E)-N-methyl-N-[(benzofuran-3-yl)methylene]-3-(2-fluoro-4-trifluoromethyl-phenyl)-prop-2-en-1-amine]",9.2 ± 0.4
14,"CN(C/C=C/c1ccc2ccccc2c1)Cc1coc2ccccc12 [Compound IA-26, (E)-N-methyl-N-[(benzofuran-3-yl)methylene]-3-(2-naphthyl)-prop-2-en-1-amine]",6.4 ± 0.6
15,"CN(C/C=C/c1cccc([N+](=O)[O-])c1)Cc1coc2ccccc12 [Compound IA-29, (E)-N-methyl-N-[(benzofuran-3-yl)methylene]-3-(3-nitrophenyl)-prop-2-en-1-amine]",> 1000
16,"CN(C/C=C/c1ccccc1F)Cc1coc2ccccc12 [Compound IA-28, (E)-N-methyl-N-[(benzofuran-3-yl)methylene]-3-(2-fluorophenyl)-prop-2-en-1-amine]",> 1000
17,"CN(C/C=C/c1ccccc1Cl)Cc1coc2ccccc12 [Compound IA-8, (E)-N-methyl-N-[(benzofuran-3-yl)methylene]-3-(2-chlorophenyl)prop-2-en-1-amine]",360 ± 57.8
18,"COc1ccccc1/C=C/CN(C)Cc1coc2ccccc12 [Compound IA-34, (E)-N-methyl-N-[(benzofuran-3-yl)methylene]-3-(2-methoxyphenyl)-prop-2-en-1-amine]",> 1000
19,"CN(C/C=C/c1cccs1)Cc1coc2ccccc12 [Compound IA-33, (E)-N-methyl-N-[(benzofuran-3-yl)methylene]-3-thiophen-2-en-1-amine]",> 1000
20,"CN(C/C=C/c1ccc(C(F)(F)F)cc1)Cc1cc2ccccc2s1 [Compound IF-2, (E)-N-(benzo[b]thiophen-2-ylmethyl)-N-methyl-3-(4-(trifluoromethyl)phenyl)prop-2-en-1-amine]",95.3 ± 1.6
21,"CN(C/C=C/c1ccc(C(F)F)cc1)Cc1coc2ccccc12 [Compound IA-6, (E)-N-methyl-N-[(benzofuran-3-yl)methylene]-3-(4-difluoromethylphenyl)-prop-2-en-1-amine]",6.4 ± 0.1
